Test results published in PubChem BioAssay (NCI).
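All cell lines were grown in 96-well plates and treated with compound for 48 hours. TGI is the concentration that stops growth completely.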

Legend:
Experiment in all cases: NCI-60 cell line screen, 48 h
A549 NSCLC = tested on: A549 NSCLC
SK-MEL-28 melanoma = tested on: SK-MEL-28 melanoma
SF-539 CNS = tested on: SF-539 CNS
ACHN renal = tested on: ACHN renal
OVCAR-4 ovarian = tested on: OVCAR-4 ovarian
SF-295 CNS = tested on: SF-295 CNS
UACC-257 melanoma = tested on: UACC-257 melanoma
UACC-62 melanoma = tested on: UACC-62 melanoma
HOP-62 NSCLC = tested on: HOP-62 NSCLC
DMS 114 small cell lung = tested on: DMS 114 small cell lung
RXF 393 renal = tested on: RXF 393 renal
SNB-75 CNS = tested on: SNB-75 CNS
M19-MEL melanoma = tested on: M19-MEL melanoma
LOX IMVI melanoma = tested on: LOX IMVI melanoma
SN12C renal = tested on: SN12C renal
UO-31 renal = tested on: UO-31 renal
SK-MEL-5 melanoma = tested on: SK-MEL-5 melanoma
DMS 273 small cell lung = tested on: DMS 273 small cell lung
COLO 205 colon = tested on: COLO 205 colon
IGROV1 ovarian = tested on: IGROV1 ovarian
HCT-116 colon = tested on: HCT-116 colon
CAKI-1 renal = tested on: CAKI-1 renal
KM12 colon = tested on: KM12 colon
HT29 colon = tested on: HT29 colon
OVCAR-5 ovarian = tested on: OVCAR-5 ovarian
HOP-18 NSCLC = tested on: HOP-18 NSCLC
EKVX NSCLC = tested on: EKVX NSCLC
XF 498 CNS = tested on: XF 498 CNS
M14 melanoma = tested on: M14 melanoma
SNB-19 CNS = tested on: SNB-19 CNS
DLD-1 colon = tested on: DLD-1 colon
SF-268 CNS = tested on: SF-268 CNS
SK-MEL-2 melanoma = tested on: SK-MEL-2 melanoma
OVCAR-3 ovarian = tested on: OVCAR-3 ovarian
NCI-H522 lung = tested on: NCI-H522 lung
HL-60(TB) leukemia = tested on: HL-60(TB) leukemia
SW-620 colon = tested on: SW-620 colon
K-562 leukemia = tested on: K-562 leukemia
HCC-2998 colon = tested on: HCC-2998 colon
LXFL 529 NSCLC = tested on: LXFL 529 NSCLC
HOP-92 NSCLC = tested on: HOP-92 NSCLC
KM20L2 colon = tested on: KM20L2 colon
TK-10 renal = tested on: TK-10 renal
MALME-3M melanoma = tested on: MALME-3M melanoma
RXF-631 renal = tested on: RXF-631 renal
U251 CNS = tested on: U251 CNS
NCI-H460 lung = tested on: NCI-H460 lung
SNB-78 CNS = tested on: SNB-78 CNS
NCI-H226 lung = tested on: NCI-H226 lung
NCI-H23 lung = tested on: NCI-H23 lung
HCT-15 colon = tested on: HCT-15 colon
OVCAR-8 ovarian = tested on: OVCAR-8 ovarian
A498 renal = tested on: A498 renal
786-0 renal = tested on: 786-0 renal
SK-OV-3 ovarian = tested on: SK-OV-3 ovarian
SR leukemia = tested on: SR leukemia
RPMI-8226 leukemia = tested on: RPMI-8226 leukemia
CCRF-CEM leukemia = tested on: CCRF-CEM leukemia
MOLT-4 leukemia = tested on: MOLT-4 leukemia

Measured: TGI

CN(C)c1ccc(/C=c2\sc3nc4ccccc4n3c2=O)cc1
not listed: SK-OV-3 ovarian | SR leukemia | RPMI-8226 leukemia | CCRF-CEM leukemia | MOLT-4 leukemia
> 100 µM: all other assays above

O=C(O)CCc1nn2c(nc1=O)sc1ccc3ccccc3c12
not listed: KM12 colon | OVCAR-5 ovarian | SK-MEL-2 melanoma | NCI-H522 lung | A498 renal
> 100 µM: all other assays above
